Measured values taken from ChEMBL document CHEMBL1150912, “A new taxane diterpenoid from Taxus mairei” (J Nat Prod, 1998).
≈ marks a conversion by molar mass, not a printed value. Starred links: 1 amine or outer side, 2 acyl side, 3 side chain; linkers in the order of their positions; H or OH if unused. Positions of bridges follow the written chain, without caps; N, C: chain ends. Non-standard residues stand in square brackets, D forms with d. Residues, ends and D or L forms follow the SMILES beside them. Chains are numbered I, II in the order given. Actinocin(1to9) = Cc1c2oc3c(C)ccc(C(=O)[*:2])c3nc-2c(C(=O)[*:1])c(N)c1=O; NMeV = CN[C@H](C(=O)O)C(C)C; Sar = CNCC(=O)O

How the values were obtained:
[1] = Cytotoxicity against human Hep3B cells after 3 days by methylene blue assay; type: functional, cell-based, Hep 3B2; details: 72 h
[2] = system: HeLa; assay: Cytotoxicity against human HeLa cells after 3 days by methylene blue assay; type: functional, cell-based; details: 72 h

| SMILES | IC50 [1] | IC50 [2] |
| --- | --- | --- |
| Cc1c2oc3c(C)ccc(C(=O)N[C@@H]4C(=O)N[C@H](C(C)C)C(=O)N5CCC[C@H]5C(=O)N(C)CC(=O)N(C)[C@@H](C(C)C)C(=O)O[C@@H]4C)c3nc-2c(C(=O)N[C@@H]2C(=O)N[C@H](C(C)C)C(=O)N3CCC[C@H]3C(=O)N(C)CC(=O)N(C)[C@@H](C(C)C)C(=O)O[C@@H]2C)c(N)c1=O [DACTINOMYCIN] (I: T[dV]P[Sar][NMeV] / II: T[dV]P[Sar][NMeV]; ester I:1-I:C, II:1-II:C; linker I:N-II:N via Actinocin(1to9)) | 0.01 µg/mL (≈ 0.00797 µM) | 0.01 µg/mL (≈ 0.00797 µM) |
| CO[C@@]12[C@H](COC(N)=O)C3=C(C(=O)C(C)=C(N)C3=O)N1C[C@@H]1N[C@@H]12 [MITOMYCIN] | 0.01 µg/mL (≈ 0.0299 µM) | 0.01 µg/mL (≈ 0.0299 µM) |
| CC(=O)O[C@H]1[C@@H]2[C@]3(OC(C)=O)CO[C@@H]3C[C@H](O)[C@@]2(C)[C@@H](OC(=O)c2ccccc2)[C@H](O)C2=C(C)[C@@H](O)C[C@]21C(C)(C)O [TAXUMAIROL K] | 40 µg/mL (≈ 68 µM) | 9.2 µg/mL (≈ 15.6 µM) |
